Columns and labels:
Type in all cases: functional
Paraixeris denticulata [1] = assay: Herbicidal activity against Paraixeris denticulata assessed as germination rate at 1000 ug/ml measured on fourth day post dose (reference value: 100%)
Echinochloa crus-galli [2] = assay: Herbicidal activity against Echinochloa crus-galli (barnyard grass) plants assessed as inhibition of seedling growth at 1000 ug/ml after 65 hr by barnyard cup test; settings: read-out: GI
Paraixeris denticulata [3] = assay: Herbicidal activity against Paraixeris denticulata assessed as germination rate at 1000 ug/ml measured on second day post dose (reference value: 76.7 +/- 0.3%)
Digitaria sanguinalis [4] = assay: Post-emergence herbicidal activity against Digitaria sanguinalis (hairy crabgrass) seedlings assessed as inhibition of plant fresh weight growth at 1500 g/ha applied through spraying under greenhouse conditions; settings: read-out: GI
Paraixeris denticulata [5] = assay: Herbicidal activity against Paraixeris denticulata assessed as germination rate at 1000 ug/ml measured on third day post dose (reference value: 97.4 +/- 0.6%)
Echinochloa crus-galli [6] = assay: Post-emergence herbicidal activity against Echinochloa crus-galli (barnyard grass) seedlings assessed as inhibition of plant fresh weight growth at 1500 g/ha applied through spraying under greenhouse conditions; settings: read-out: GI
Amaranthus retroflexus [7] = assay: Pre-emergence herbicidal activity against Amaranthus retroflexusassessed as inhibition of plant fresh weight growth at 1500 g/ha applied to soil through spraying under greenhouse conditions; settings: read-out: GI
Amaranthus retroflexus [8] = assay: Post-emergence herbicidal activity against Amaranthus retroflexus seedlings assessed as inhibition of plant fresh weight growth at 1500 g/ha applied through spraying under greenhouse conditions; settings: read-out: GI
Echinochloa crus-galli [9] = assay: Herbicidal activity against Echinochloa crus-galli (barnyard grass) plants assessed as inhibition of seedling growth at 100 ug/ml after 65 hr by barnyard cup test; settings: read-out: GI
[10] = system: Brassica rapa subsp. oleifera; assay: Herbicidal activity against Brassica rapa subsp. oleifera assessed as inhibition of root growth at 1000 ug/ml after 65 hr by rape cup test; settings: read-out: GI
Echinochloa crus-galli [11] = assay: Pre-emergence herbicidal activity against Echinochloa crus-galli (barnyard grass) assessed as inhibition of plant fresh weight growth at 1500 g/ha applied to soil through spraying under greenhouse conditions; settings: read-out: GI
[12] = system: Brassica rapa subsp. oleifera; assay: Post-emergence herbicidal activity against Brassica rapa subsp. oleifera seedlings assessed as inhibition of plant fresh weight growth at 1500 g/ha applied through spraying under greenhouse conditions; settings: read-out: GI
[13] = system: Brassica rapa subsp. oleifera; assay: Herbicidal activity against Brassica rapa subsp. oleifera assessed as inhibition of root growth at 100 ug/ml after 65 hr by rape cup test; settings: read-out: GI
Echinochloa crus-galli [14] = assay: Herbicidal activity against Echinochloa crus-galli (barnyard grass) plants assessed as germination rate at 1000 ug/ml measured on second day post dose (reference value: 100%)
Paraixeris denticulata [15] = assay: Herbicidal activity against Paraixeris denticulata assessed as germination rate at 1000 ug/ml measured on first day post dose (reference value: 30.8 +/- 1.2%)
Digitaria sanguinalis [16] = assay: Pre-emergence herbicidal activity against Digitaria sanguinalis (hairy crabgrass) assessed as inhibition of plant fresh weight growth at 1500 g/ha applied to soil through spraying under greenhouse conditions; settings: read-out: GI
Echinochloa crus-galli [17] = assay: Herbicidal activity against Echinochloa crus-galli (barnyard grass) plants assessed as germination rate at 1000 ug/ml measured on first day post dose (reference value: 49.1 +/- 1.6%)
[18] = system: Brassica rapa subsp. oleifera; assay: Pre-emergence herbicidal activity against Brassica rapa subsp. oleifera assessed as inhibition of plant fresh weight growth at 1500 g/ha applied to soil through spraying under greenhouse conditions; settings: read-out: GI
[19] = system: Brassica rapa subsp. oleifera; assay: Herbicidal activity against Brassica rapa subsp. oleifera assessed as inhibition of root growth at 10 ug/ml after 65 hr by rape cup test; settings: read-out: GI
Digitaria sanguinalis [20] = assay: Herbicidal activity against Digitaria sanguinalis (hairy crabgrass) assessed as germination rate at 1000 ug/ml measured on first day post dose (reference value: 0%)
Digitaria sanguinalis [21] = assay: Herbicidal activity against Digitaria sanguinalis (hairy crabgrass) assessed as germination rate at 1000 ug/ml measured on third day post dose (reference value: 100%)
Digitaria sanguinalis [22] = assay: Herbicidal activity against Digitaria sanguinalis (hairy crabgrass) assessed as germination rate at 1000 ug/ml measured on second day post dose (reference value: 100%)

Row | SMILES | inhibition of growth at 1000 µg/mL (Echinochloa crus-galli [2]) [%] | inhibition of growth at 100 µg/mL (Echinochloa crus-galli [9]) [%] | inhibition of growth at 1000 µg/mL [10] [%] | inhibition of growth at 100 µg/mL [13] [%] | Activity (Echinochloa crus-galli [14]) [%] | Activity (Echinochloa crus-galli [17]) [%] | Activity (Digitaria sanguinalis [20]) [%] | Activity (Digitaria sanguinalis [21]) [%] | Activity (Digitaria sanguinalis [22]) [%] | further results
1 | COc1cc(OC)c2c(c1)O/C(=C\c1ccccc1F)C2=O | 45 | 15 | 86.8 | 74.7 | 100 | 11.4 |  |  |  | Activity (Paraixeris denticulata [1]): 100%; Activity (Paraixeris denticulata [3]): 58.9%; inhibition of growth at 1500 g/ha (Digitaria sanguinalis [4]): 0%; Activity (Paraixeris denticulata [5]): 76.7%; inhibition of growth at 1500 g/ha (Echinochloa crus-galli [6]): 6.5%; inhibition of growth at 1500 g/ha (Amaranthus retroflexus [7]): 10%; inhibition of growth at 1500 g/ha (Amaranthus retroflexus [8]): 40.1%; inhibition of growth at 1500 g/ha (Echinochloa crus-galli [11]): 15%; inhibition of growth at 1500 g/ha [12]: 0%; Activity (Paraixeris denticulata [15]): 17.8%; inhibition of growth at 1500 g/ha (Digitaria sanguinalis [16]): 0%; inhibition of growth at 1500 g/ha [18]: 0%
2 | COc1cc(OC)c2c(c1)O/C(=C\c1ccc(F)cc1)C2=O | 5 | 0 | 74.2 | 64.2 |  |  |  |  |  | inhibition of growth at 10 µg/mL [19]: 50.6%
3 | COc1cc(/C=C2\Oc3cc(O)cc(O)c3C2=O)ccc1O | 23.3 | 9.5 | 98.4 | 63.3 | 100 | 16.9 | 0 | 100 | 35.1 | Activity (Paraixeris denticulata [1]): 100%; Activity (Paraixeris denticulata [3]): 82.4%; Activity (Paraixeris denticulata [5]): 94.9%; Activity (Paraixeris denticulata [15]): 14.3%
4 | COc1cc(OC)c2c(c1)O/C(=C\c1ccco1)C2=O | 42.5 | 7.8 | 94.9 | 75.9 | 100 | 23.7 | 0 | 100 | 35 | inhibition of growth at 10 µg/mL [19]: 31.6%
5 | CCOc1cc(OCC)c2c(c1)O/C(=C\c1ccccc1)C2=O | 27.6 | 8 | 71.3 | 37.5 | 100 | 17.7 |  |  |  | 
6 | CCOc1cc(OCC)c2c(c1)O/C(=C\c1ccc(OCc3ccccc3)c(OC)c1)C2=O | 26.7 | 15 | 72.6 | 79.2 |  |  |  |  |  | inhibition of growth at 1500 g/ha (Digitaria sanguinalis [4]): 5%; inhibition of growth at 1500 g/ha (Echinochloa crus-galli [6]): 7.9%; inhibition of growth at 1500 g/ha (Amaranthus retroflexus [7]): 5%; inhibition of growth at 1500 g/ha (Amaranthus retroflexus [8]): 0%; inhibition of growth at 1500 g/ha (Echinochloa crus-galli [11]): 0%; inhibition of growth at 1500 g/ha [12]: 0%; inhibition of growth at 1500 g/ha (Digitaria sanguinalis [16]): 10%; inhibition of growth at 1500 g/ha [18]: 0%
7 | COc1cc2c(c(OC)c1C)C(=O)/C(=C/c1ccccc1)O2 | 33.5 | 15 | 82.6 | 30.5 | 100 | 19.5 | 0 | 100 | 68.6 | 

Reference: ChEMBL document CHEMBL3046252, “Synthesis and herbicidal potential of substituted aurones” (2012)
